For the test, the system named is plasma nitrites induced by endotoxin (LPS). As to the kind of experiment: In Vivo Assay: Low Dose LPS, plasma nitrites in endotoxin-treated mice. The following applies: LPS 12.5 mg/kg i.p., plasma nitrites 5 hours post-treatment. As to the method: In Vivo Assay Mice were treated with an intraperitoneal injection of 12.5 mg/kg of endotoxin (LPS) with or without oral administration of the nitric oxide synthase inhibitors. Plasma nitrites were measured 5 hours post-treatment.

For `O=c1onc2n1CCCCC2` [Example 1, 6,7,8,9-tetrahydro-3H,5H-[1,2,4]oxadiazolo[4,3-a]azepin-3-one], the “Low Dose LPS in vivo, inhibition of rise in plasma nitrites” value (shortened to “Low Dose LPS in vivo, inhibition of rise”) (compound 1 mg/kg p.o.) stood at 23% inh and the “Low Dose LPS in vivo, inhibition of rise” value (compound 10 mg/kg p.o.) is 72% inh.

Regarding `NCCC1CCCCc2noc(=O)n21` (stereo not shown) [Example 3, 5-(2-aminoethyl)-6,7,8,9-tetrahydro-3H,5H-[1,2,4]oxadiazolo[4,3-a]azepin-3-one, mono(trifluoroacetate)], the “Low Dose LPS in vivo, inhibition of rise” value by setting is: (compound 3 mg/kg p.o.) 33% inh; (compound 10 mg/kg p.o.) 64% inh.
